The source of these data is US7683055B2, “Lanthionine-related compounds for the treatment of inflammatory diseases” (Oklahoma Medical Research Foundation, priority 2006, dated 2010).

SMILES strings stand for the structures.

For one assay, the system named is EOC-20 microglia. Put plainly: TNFα-stimulated nitrite production in EOC-20 microglia (Griess assay). The assay is classed as cell-based, mouse. On the procedure: Mouse EOC-20 microglia (American Tissue Type Collection, Gaithersville Md. USA) (Hensley et al., 2003; Walker et al., 1995) were grown in DMEM containing 20% L929 fibroblast-supplemented medium. Nitrite production by cytokine stimulated microglia was measured in cell culture medium using the Griess diazotization reaction as previously reported (Hensley et al., 2003; West et al., 2004).
The efficacy of (R)-LKE1 and (R)-LK as inhibitors of microglial cell activation in response to pro-inflammatory cytokines is shown in FIGS. 1A & 1B. EOC-20 murine microglial cells were pretreated 30 minutes with test compounds (e.g. (R)-LK or (R)-LKE1) dissolved in DMSO and diluted 1:200 into cell culture medium; or with DMSO vehicle only. Cells were then challenged with cytokine and allowed to incubate undisturbed in the cell culture incubator for 24 h prior to Griess assay. The lanthionine ketimine ester in this case is the structure shown above as (R)-LKE1. After drug treatment cells were then stimulated with 40 ng/mL recombinant murine tumor necrosis factor alpha (TNF α) plus 50U/mL interferon gamma (IFNγ). Nitrite (NO2^−) was measured in the cell culture medium 24 hours later, as an index of nitric oxide production. Cell viability was then assayed in the same cultures using a commercially available tetrazolium reduction assay (Promega OneStep™; Promega, Gaithersburg Md.). Cell culture methods were those published by the inventor (Hensley et al., 2003; West et al., 2004).
In a EOC-20 microglial assay the cells were stimulated with TNFα in the presence or absence of 100 microM (R)- or (S)-LK, and nitrite was measured 24 h later, the net suppression of nitrite was 13% by (S)-LK and 15% by (R)-LK.
The reduced lanthionine ketimine (i.e., TMDCA) was also tested against TNFα-stimulated nitrite production in the EOC-20 screen.
In general terms: The Griess reaction detects nitrite, a stable product of nitric oxide.

Another assay concerns NSC-34 cells. Put plainly: NSC-34 viability after H2O2 challenge (tetrazolium reduction). The assay is classed as cell-based, mouse. Particulars: H2O2 challenge 24 h. As for the experimental part: NSC-34 cells were challenged directly with H2O2 for 24 h and the viability was assessed by tetrazolium reduction assay.
Furthermore, the invention contemplates that cytoprotection might be achieved by providing metabolic precursors to LK, rather than direct addition of the compound. For example, the inventor has studied the effects of NSC-34 cells treated with ethyl pyruvate in the presence or absence of lanthionine for 6 h prior to challenge with H2O2 and has assayed the viability of these cells 24 h later (FIG. 10). As reported in previous studies, ethyl pyruvate alone was protective against peroxide-induced cell death (Desagher et al., 1997; Nakamichi et al., 2005) with complete protection at ethyl pyruvate concentrations >1 mM (approximately 2-fold higher than ambient cell culture medium pyruvate concentrations; data not shown).
(R)-LKE1 protects NSC-34 motoneuron x neuroblastoma hybrid cells from hydrogen peroxide toxicity (FIG. 4). Cells were treated with the indicated concentration of (R)-LKE1. Thirty minutes later cells were challenged with the indicated concentration of hydrogen peroxide. Cell viability was assayed 24 hours later by tetrazolium reduction using a commercially available kit (Promega).
NSC-34 motor neuron-like cells, derived through the fusion of a neuroblastoma cell line with embryonic mouse motor neurons (Cashman et al., 1992), were grown in Dulbeco's modified essential medium (DMEM) plus 5% fetal bovine serum (FBS) and 1% penicillin plus 1% streptomycin (Pen/Strep). Recombinant TNFα and interferon gamma (IFNγ) were purchased from BD Biosciences (Pasadena Calif. USA). Lanthionine was purchased from Sequoia Research Products Ltd. (Pangbourne, UK). All other reagents were of the highest available commercial purity.
NSC-34 cells were exposed to 1 mM H2O2 with or without ethyl-pyruvate and/or lantionine (LK).

In the next assay the test system is C6 glioma cells. Put plainly: stimulated nitrite production in C6 glioma cells. Type of assay: cell-based.

For the compound `CCOC(=O)[C@@H]1CSCC(C(=O)O)=N1` [(R)-LKE1], the “potency at suppressing cytokine activation relative to unesterified lanthionine ketimine” value in the assay with EOC-20 microglia (FIG. 1A) is reported as “statistically significantly more potent”. For the same compound, the “inhibition of nitrite production” value in the assay on EOC-20 microglia (TNFα-stimulated EOC-20 microglia) is “inhibited nitrite production”. The “protection from H2O2-induced cell death” value with NSC-34 cells is “protected NSC-34 cells from direct oxidative stress-induced cell death in a dose dependent fashion”. The “suppression of nitrite production” value in the assay on C6 glioma cells (stimulated by TNFα+IFNγ) was “does not suppress nitrite production”; with C6 glioma cells (stimulated by TNFα+LPS) it was “not to suppress nitrite production”.
